In PubChem BioAssay (NCI):
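Method: 48-hour compound exposure of cells in 96-well plates, five concentrations, linear interpolation of endpoints. Here, GI50 denotes the concentration required for 50% inhibition of growth. The concentration for full growth arrest is given as TGI.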

Assays:
Test in all cases: DTP human tumour cell line panel, 48 h
[1] = system: HCT-116 colon
[2] = system: HL-60(TB) leukemia
[3] = system: KM12 colon
[4] = system: 786-0 renal
[5] = system: MCF7 breast
[6] = system: ACHN renal
[7] = system: U251 CNS
[8] = system: NCI-H460 lung
[9] = system: SF-539 CNS
[10] = system: HOP-92 NSCLC
[11] = system: A498 renal
[12] = system: UACC-257 melanoma
[13] = system: HS 578T breast
[14] = system: IGROV1 ovarian
[15] = system: RPMI-8226 leukemia
[16] = system: UACC-62 melanoma
[17] = system: SN12C renal
[18] = system: HT29 colon
[19] = system: OVCAR-8 ovarian
[20] = system: CCRF-CEM leukemia
[21] = system: MDA-MB-231 breast
[22] = system: SK-MEL-5 melanoma
[23] = system: MDA-MB-435
[24] = system: SW-620 colon
[25] = system: SR leukemia
[26] = system: SF-295 CNS
[27] = system: TK-10 renal
[28] = system: OVCAR-4 ovarian
[29] = system: SK-MEL-2 melanoma
[30] = system: LOX IMVI melanoma
[31] = system: OVCAR-3 ovarian
[32] = system: MALME-3M melanoma
[33] = system: SK-MEL-28 melanoma
[34] = system: DU-145 prostate
[35] = system: OVCAR-5 ovarian
[36] = system: T-47D breast
[37] = system: CAKI-1 renal
[38] = system: HOP-62 NSCLC
[39] = system: BT-549 breast
[40] = system: PC-3 prostate
[41] = system: NCI-H23 lung
[42] = system: NCI-H522 lung
[43] = system: SNB-19 CNS
[44] = system: RXF 393 renal
[45] = system: NCI/ADR-RES ovarian
[46] = system: SK-OV-3 ovarian
[47] = system: K-562 leukemia
[48] = system: M14 melanoma
[49] = system: UO-31 renal
[50] = system: SF-268 CNS
[51] = system: HCT-15 colon
[52] = system: MOLT-4 leukemia
[53] = system: COLO 205 colon
[54] = system: HCC-2998 colon
[55] = system: NCI-H226 lung
[56] = system: A549 NSCLC
[57] = system: SNB-75 CNS

Compound `Cc1cc(Nc2nc(-c3ccc(F)cc3)nc3ccccc23)n[nH]1` has a GI50 [1] of 0.76 µM, a TGI [1] of 15.5 µM and a GI50 [2] of 2.78 µM. The TGI [2] was 34.8 µM, the GI50 [3] was 0.0631 µM and the TGI [3] was 12 µM. For the same compound, the GI50 [4] was 1.99 µM, the TGI [4] was 38.1 µM and the GI50 [5] was 2.79 µM. For the same compound, the TGI [5] was 18.8 µM, the GI50 [6] was 0.818 µM and the TGI [6] was 39.5 µM. For the same compound, the GI50 [7] was 1.75 µM, the TGI [7] was 21.4 µM and the GI50 [8] was 3.17 µM. The TGI [8] was 21 µM, the GI50 [9] was 2.81 µM and the TGI [9] was 15.4 µM. For the same compound, the GI50 [10] was 0.72 µM, the TGI [10] was 8.64 µM and the GI50 [11] was 0.371 µM. It also gave a TGI [11] of 5.21 µM, a GI50 [12] of 10 µM and a TGI [12] of 22.7 µM. For the same compound, the GI50 [13] was 0.842 µM, the TGI [13] was 7.54 µM and the GI50 [14] was 0.983 µM. For the same compound, the TGI [14] was 9.17 µM, the GI50 [15] was 9.22 µM and the TGI [15] was 39.1 µM. The GI50 [16] was 3.96 µM, the TGI [16] was 19.6 µM and the GI50 [17] was 3.1 µM. The TGI [17] was 25.2 µM, the GI50 [18] was 0.691 µM and the TGI [18] was 7.5 µM. The GI50 [19] was 7.28 µM, the TGI [19] was 36.9 µM and the GI50 [20] was 8.55 µM. The TGI [20] was 39.6 µM, the GI50 [21] was 9.15 µM and the TGI [21] was 26.8 µM. The GI50 [22] was 7.4 µM, the TGI [22] was 20.3 µM and the GI50 [23] was 1.65 µM. It also gave a TGI [23] of 16.2 µM, a GI50 [24] of 2.1 µM and a TGI [24] of 15.7 µM. For the same compound, the GI50 [25] was 1.34 µM, the TGI [25] was 38.4 µM and the GI50 [26] was 5.36 µM. It also gave a TGI [26] of 21.2 µM, a GI50 [27] of 1.25 µM and a TGI [27] of 33.4 µM. It also gave a GI50 [28] of 3.2 µM, a TGI [28] of 27.8 µM and a GI50 [29] of 0.811 µM. The TGI [29] was 16 µM, the GI50 [30] was 1.05 µM and the TGI [30] was 11.2 µM. It also gave a GI50 [31] of 4.9 µM, a TGI [31] of 31.6 µM and a GI50 [32] of 16.4 µM. For the same compound, the TGI [32] was 31.8 µM, the GI50 [33] was 8.46 µM and the TGI [33] was 21.7 µM. The GI50 [34] was 6.44 µM, the TGI [34] was > 48.9 µM and the GI50 [35] was 10.1 µM. It also gave a TGI [35] of 34.5 µM, a GI50 [36] of 1.92 µM and a TGI [36] of 11.8 µM. It also gave a GI50 [37] of 0.453 µM, a TGI [37] of 17.6 µM and a GI50 [38] of 4.76 µM. It also gave a TGI [38] of 20.3 µM, a GI50 [39] of 7.3 µM and a TGI [39] of 21.6 µM. The GI50 [40] was 2.26 µM, the TGI [40] was 21.4 µM and the GI50 [41] was 5.74 µM. For the same compound, the TGI [41] was 24.9 µM, the GI50 [42] was 3.44 µM and the TGI [42] was 18.8 µM. The GI50 [43] was 8.48 µM, the TGI [43] was > 93.9 µM and the GI50 [44] was 0.757 µM. For the same compound, the TGI [44] was 5.09 µM, the GI50 [45] was 4.5 µM and the TGI [45] was 52.2 µM. The GI50 [46] was 0.855 µM, the TGI [46] was 41.8 µM and the GI50 [47] was 3.91 µM. For the same compound, the TGI [47] was 24.1 µM, the GI50 [48] was 0.748 µM and the TGI [48] was 19.4 µM. It also gave a GI50 [49] of 0.574 µM, a TGI [49] of 15 µM and a GI50 [50] of 3.85 µM. For the same compound, the TGI [50] was 24.5 µM, the GI50 [51] was 0.673 µM and the TGI [51] was 33.9 µM. For the same compound, the GI50 [52] was 10.1 µM, the TGI [52] was 35.1 µM and the GI50 [53] was 1.35 µM. It also gave a TGI [53] of 3.35 µM, a GI50 [54] of 5.24 µM and a TGI [54] of 25.4 µM. The GI50 [55] was 3.36 µM, the TGI [55] was 18 µM and the GI50 [56] was 1.77 µM. It also gave a TGI [56] of 18.1 µM, a GI50 [57] of 0.469 µM and a TGI [57] of 7.42 µM.
